Laboratory results as given in patent publication US12729192B2, “CDK9 inhibitor and use thereof” (PHARMABLOCK SCIENCES (NANJING), INC., priority 2020, dated 2026).
Read-outs that look alike come from different tables or passages of the source.

What was measured:
CDK2 = target: T1, CDK2 (Homo sapiens, UniProt P24941); experiment: CDK2 kinase activity inhibition (ADP-Glo); assay type: biochemical; conditions: 10 μM ATP, 2 h at room temperature
T1 construct: purchased Carna Biosciences, Inc
Description: (§1) CDK9 kinase was manufactured by the company or commercially available. CDK1, CDK2 and CDK7 were purchased from Carna Biosciences, Inc. ADP-Glo™ kit was purchased from Promega Corporation. Dithiothreitol (DTT), Tween-20, dimethylsulfoxide (DMSO), bovine serum albumin (BSA) and Tris base were obtained from Sigma at the available highest level of purity.
(§2) General procedures for CDK inhibition determination: The determination was performed in a buffer consisting of 50 μM DTT, 0.1% BSA, 40 mM Tris-HCl pH=7.5 and 20 mM MgCl2. The compound dissolved in DMSO and CDK enzymes were diluted with the buffer. 1 μL of the compound solution in 5% DMSO and 2 μL of the CDK enzyme solution were added to a white low-volume 384-well microtiter plate and incubated for 20 min at room temperature. Ultra pure ATP and the substrate polypeptide (purchased from GenScript Biotech Corporation) were diluted together into the buffer and added to a mixed solution of the compound and the enzyme, 2 μL per well. They were incubated for 2 h at room temperature.
(§3) After the reaction was completed, 5 μL of ADP-Glo™ reagent was added to each well and incubated for 40 min at room temperature, and then 10 μL of test reagent was added to each well and incubated for 30 mi at room temperature. Chemical luminescence values were measured by using a Tecan (Männedorf, Switzerland) multifunctional plate reader Spark for plate reading. The IC50 value of the inhibitor was obtained by fitting the chemical luminescence intensity ratio in the S-shaped dosage reaction curve using Prism 7 (La Jolla, 15 CA) relative to the concentration of the inhibitor.

CDK7 = target: T2, CDK7 (Homo sapiens, UniProt P50613); experiment: CDK7 kinase activity inhibition (ADP-Glo); assay type: biochemical; conditions: 10 μM ATP, 2 h at room temperature
T2 construct: purchased Carna Biosciences, Inc
Description: as §1, §2, §3

CDK1 = target: T3, CDK1 (Homo sapiens, UniProt P06493); experiment: CDK1 kinase activity inhibition (ADP-Glo); assay type: biochemical; conditions: 50 μM ATP, 2 h at room temperature
T3 construct: purchased Carna Biosciences, Inc
Description: as §1, §2, §3

MOLM-13 cells = experiment: Tumor cell proliferation inhibition experiment (CellTiter-Glo); assay type: cell-based; conditions: Homo sapiens, read-out: MOLM-13 (nM) IC50, cell proliferation inhibition
Source text: An acute myeloid leukemia (AML) cell line (MOLM-13) was purchased from NANJING COBIOER BIOSCIENCES CO., LTD. An RPMI1640 medium and a penicillin-streptomycin double-antibody were purchased from ThermoFisher (Waltham, MA, USA). Certified fetal bovine serum (FBS) was purchased from Biological Industries (Israel). A Corning 384-well cell culture plate was purchased from CORNING (USA). Cell-Titer Glo® was purchased from Promega Corporation (Madison, WI, USA).
To evaluate the ability of the synthetic compound to inhibit the proliferation of MOLM-13 cells, MOLM-13 cells at an exponential growth stage were inoculated at a density of 500,000 cell/mL in the RPMI1640 medium containing 20% bovine serum and 1% penicillin-streptomycin double-antibody, and the 384-well plate contained 20 μL per well and placed overnight in an 37° C., 5% CO2 incubator. Compound powder was dissolved in DMSO to prepare a storage mother liquor with a concentration of 2 mM, and 12 dilutions with three-fold gradient concentrations were further prepared. 1 μL of gradient-diluted DMSO solution was added to 99 μL of cell culture medium (the final maximum concentration of the compound in the assay was 10 uM and the final concentration of DMSO was 0.5%). 20 μL of compound solution in the medium was added at gradients to each cell-coated test well of the 384-well plate. After the compound solution was added, the 384-well plate was incubated for 16 h in a 37° C., 5% CO2 incubator. Cell viability was determined by quantifying ATPs present in test wells using the CellTiter-Glo kit from Promega (Madison, WI, USA). After 20 minutes of incubation, readings were obtained under a chemical luminescence procedure using Tecan's Spark multifunctional plate reader. The concentration (IC50 value) of the compound at which the cell survival rate was inhibited by 50% was determined using an S-shaped dosage response model (variable slope, four parameters) in Prism 7 (LaJolla, CA).

CDK9 = CDK9 (Homo sapiens, UniProt P50750); experiment: CDK9 kinase activity inhibition (ADP-Glo); assay type: biochemical; conditions: 10 μM ATP, 2 h at room temperature
Description: as §1, §2, §3

[1] = acute myeloid leukemia cell line MOLM-13, 16 h incubation, CellTiter-Glo

CDK9, sequence (P50750 whole entry): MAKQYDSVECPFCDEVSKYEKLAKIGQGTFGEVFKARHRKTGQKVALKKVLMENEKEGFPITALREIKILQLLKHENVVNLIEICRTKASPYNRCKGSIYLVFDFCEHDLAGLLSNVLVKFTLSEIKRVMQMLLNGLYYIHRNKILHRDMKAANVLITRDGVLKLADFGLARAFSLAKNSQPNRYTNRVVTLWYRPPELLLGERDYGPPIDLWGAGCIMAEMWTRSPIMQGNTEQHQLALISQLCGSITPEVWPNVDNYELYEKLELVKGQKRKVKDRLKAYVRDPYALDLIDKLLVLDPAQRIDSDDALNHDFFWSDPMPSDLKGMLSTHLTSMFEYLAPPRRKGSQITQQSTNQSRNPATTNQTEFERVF
CDK9, sequence (O60563 whole entry partner): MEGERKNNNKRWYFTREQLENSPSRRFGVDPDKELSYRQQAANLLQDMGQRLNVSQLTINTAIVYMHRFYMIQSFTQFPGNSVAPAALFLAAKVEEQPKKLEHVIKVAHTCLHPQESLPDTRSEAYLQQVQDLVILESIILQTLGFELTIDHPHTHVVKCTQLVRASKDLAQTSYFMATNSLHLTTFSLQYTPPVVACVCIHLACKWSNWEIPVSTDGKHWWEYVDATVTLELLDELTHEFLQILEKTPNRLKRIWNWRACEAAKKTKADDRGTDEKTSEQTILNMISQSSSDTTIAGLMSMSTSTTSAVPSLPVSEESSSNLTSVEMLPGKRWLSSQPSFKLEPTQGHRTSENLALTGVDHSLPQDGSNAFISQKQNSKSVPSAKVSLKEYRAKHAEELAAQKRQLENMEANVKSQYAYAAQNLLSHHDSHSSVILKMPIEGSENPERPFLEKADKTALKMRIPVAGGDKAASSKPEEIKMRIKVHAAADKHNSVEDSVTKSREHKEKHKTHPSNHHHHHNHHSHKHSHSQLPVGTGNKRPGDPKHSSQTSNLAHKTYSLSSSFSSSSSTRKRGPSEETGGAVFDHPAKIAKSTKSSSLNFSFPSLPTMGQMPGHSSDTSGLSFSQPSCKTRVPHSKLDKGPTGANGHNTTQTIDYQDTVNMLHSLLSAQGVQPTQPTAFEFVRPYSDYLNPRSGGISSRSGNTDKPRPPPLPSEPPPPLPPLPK
T2 sequence (P50613 whole entry): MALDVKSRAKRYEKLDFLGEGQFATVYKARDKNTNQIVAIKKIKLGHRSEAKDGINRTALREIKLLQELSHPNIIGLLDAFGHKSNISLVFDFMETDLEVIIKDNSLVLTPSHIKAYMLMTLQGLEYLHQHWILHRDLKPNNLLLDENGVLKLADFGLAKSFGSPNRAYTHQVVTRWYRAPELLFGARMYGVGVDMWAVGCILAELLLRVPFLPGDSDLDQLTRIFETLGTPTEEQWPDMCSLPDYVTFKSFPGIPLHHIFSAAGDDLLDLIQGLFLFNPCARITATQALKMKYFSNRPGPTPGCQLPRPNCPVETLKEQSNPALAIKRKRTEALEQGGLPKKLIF
T2 sequence (P51946 whole entry partner): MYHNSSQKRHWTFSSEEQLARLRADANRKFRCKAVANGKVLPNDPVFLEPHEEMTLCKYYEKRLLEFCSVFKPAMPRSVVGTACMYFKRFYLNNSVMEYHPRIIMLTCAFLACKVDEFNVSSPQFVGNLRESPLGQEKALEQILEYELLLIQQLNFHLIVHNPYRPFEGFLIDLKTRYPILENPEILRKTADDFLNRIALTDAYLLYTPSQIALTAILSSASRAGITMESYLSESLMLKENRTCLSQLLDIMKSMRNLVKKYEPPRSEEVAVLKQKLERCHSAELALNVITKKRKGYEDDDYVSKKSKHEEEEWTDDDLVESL
T2 sequence (P51948 whole entry partner): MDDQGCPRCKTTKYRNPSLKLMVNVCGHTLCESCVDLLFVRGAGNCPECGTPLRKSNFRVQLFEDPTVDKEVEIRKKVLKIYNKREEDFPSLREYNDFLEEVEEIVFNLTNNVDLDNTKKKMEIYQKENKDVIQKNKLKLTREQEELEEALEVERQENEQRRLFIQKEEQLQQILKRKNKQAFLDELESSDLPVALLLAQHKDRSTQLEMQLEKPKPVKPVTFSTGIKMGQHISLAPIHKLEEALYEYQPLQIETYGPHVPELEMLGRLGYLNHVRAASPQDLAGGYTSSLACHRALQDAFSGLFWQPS
T3 sequence (P06493 whole entry): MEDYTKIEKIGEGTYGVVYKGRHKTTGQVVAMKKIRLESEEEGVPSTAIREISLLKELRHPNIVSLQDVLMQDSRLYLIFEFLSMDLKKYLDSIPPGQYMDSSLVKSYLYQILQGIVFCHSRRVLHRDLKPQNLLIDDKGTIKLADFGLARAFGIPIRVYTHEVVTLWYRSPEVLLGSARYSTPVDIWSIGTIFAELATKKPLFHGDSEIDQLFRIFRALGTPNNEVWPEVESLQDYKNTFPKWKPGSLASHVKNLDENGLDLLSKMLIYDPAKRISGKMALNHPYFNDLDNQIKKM
T3 sequence (P14635 whole entry partner): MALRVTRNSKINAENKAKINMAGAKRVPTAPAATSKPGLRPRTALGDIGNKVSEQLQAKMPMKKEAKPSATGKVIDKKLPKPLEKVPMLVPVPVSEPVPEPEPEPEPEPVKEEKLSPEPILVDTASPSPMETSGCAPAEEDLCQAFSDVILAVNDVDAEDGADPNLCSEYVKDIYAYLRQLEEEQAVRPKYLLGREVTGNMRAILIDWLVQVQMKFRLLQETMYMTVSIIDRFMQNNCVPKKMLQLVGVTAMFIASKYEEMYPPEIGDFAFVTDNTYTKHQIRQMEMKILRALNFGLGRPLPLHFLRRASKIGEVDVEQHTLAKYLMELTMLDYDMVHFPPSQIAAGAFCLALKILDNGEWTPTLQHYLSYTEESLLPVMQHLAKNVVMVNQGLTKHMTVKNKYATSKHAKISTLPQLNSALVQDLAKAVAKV

Structure (SMILES)	IC50 (CDK2)	IC50 (CDK7)	IC50 (CDK1)	IC50 (MOLM-13 cells; [1])	IC50 (CDK9)	IC50 (MOLM-13 cells; MOLM-13, 16 h)
CC(=O)N[C@@H]1CCC[C@H](C(=O)Nc2cc(-c3cnn4c3CC(C)(C)C4)c(Cl)cn2)C1 [AZD4573, reference compound]	18.6 nM	31.4 nM	8.3 nM	17.1 nM		
COc1cc(F)ccc1-c1cc(Nc2cc(CS(C)(=N)=O)ccn2)ncc1F (centres unmarked) [BAY1251152, reference compound]	811 nM	4290 nM	570 nM	118 nM		
CC(=O)NC[C@H]1CCC(F)(F)CN1C(=O)c1nc(Nc2cc(C#N)ccn2)ccc1C [Compound 1, (R)—N-((1-(6-((4-cyanopyridin-2-yl)amino)-3-methylpyridine-2-carbonyl)-5,5-difluoropiperidin-2-yl)methyl)acetamide]	36.7 nM	1950 nM		24.8 nM	4.9 nM	
CC(=O)NC[C@H]1CCC(F)(F)CN1C(=O)c1nc(Nc2cc(OC(F)(F)F)ccn2)ccc1C [Compound 5, (R)—N-((5,5-difluoro-1-(3-methyl-6-((4-(trifluoromethoxy)pyridin-2-yl)amino)pyridine-2-carbonyl)piperidin-2-yl)methyl)acetamide]	217 nM	2600 nM	350 nM	27.9 nM	5.8 nM	
CC(=O)NC[C@H]1CCC(F)(F)CN1C(=O)c1nc(Nc2cc(OC(F)F)ccn2)ccc1C [Compound 11, (R)—N-((1-(6-((4-(difluoromethoxy)pyridin-2-yl)amino)-3-methylpyridine-2-carbonyl)-5,5-difluoropiperidin-2-yl)methyl)acetamide]	368 nM	4350 nM	755 nM	45.3 nM	5.1 nM	
CC(=O)NC[C@H]1CCC(F)(F)CN1C(=O)c1nc(Nc2cc([N+](=O)[O-])ccn2)ccc1C [Compound 19, (R)—N-((5,5-difluoro-1-(3-methyl-6-((4-nitropyridin-2-yl)amino)pyridine-2-carbonyl)piperidin-2-yl)methyl)acetamide]	48.7 nM	7780 nM	106 nM	24.2 nM	9 nM	
CC(=O)NC[C@H]1CCC(F)(F)CN1C(=O)c1nc(Nc2cc(Cl)ccn2)ccc1C [Compound 24, (R)—N-((1-(6-((4-chloropyridin-2-yl)amino)-3-methylpyridine-2-carbonyl)-5,5-difluoropiperidin-2-yl)methyl)acetamide]	408 nM	8760 nM	> 10000 nM	70.9 nM	7.1 nM	
CC(=O)NC[C@H]1CCC(F)(F)CN1C(=O)c1nc(Nc2cc(C(F)F)ccn2)ccc1C [Compound 27, (R)—N-((1-(6-((4-(difluoromethyl)pyridin-2-yl)amino)-3-methylpyridine-2-carbonyl)-5,5-difluoropiperidin-2-yl)methyl)acetamide]	144 nM	4570 nM	426 nM	22.1 nM	5.8 nM	
CC(=O)NC[C@H]1CCC(F)(F)CN1C(=O)c1nc(Nc2cc(C(F)(F)F)ccn2)ccc1C [Compound 30, (R)—N-((5,5-difluoro-1-(3-methyl-6-((4-(trifluoromethyl)pyridin-2-yl)amino)pyridine-2-carbonyl)piperidin-2-yl)methyl)acetamide]	99.3 nM	3180 nM	291 nM	11.3 nM	11.7 nM	
Cc1ccc(Nc2cc(OC(F)(F)F)ccn2)nc1C(=O)N1CC(F)(F)CC[C@@H]1CN [Compound 34, (R)-(2-(aminomethyl)-5,5-difluoropiperidin-1-yl)(3-methyl-6-((4-(trifluoromethoxy)pyridin-2-yl)amino)pyridin-2-yl)methanone]	30 nM	479 nM	261 nM	63.1 nM	3 nM	
COC(=O)c1ccnc(Nc2ccc(C)c(C(=O)N3CC(F)(F)CC[C@@H]3CNC(C)=O)n2)c1 [Compound 56, (R)-2-((6-(2-(acetamidomethyl)-5,5-difluoropiperidine-1-carbonyl)-5-methylpyridin-2-yl)amino)methyl isonicotinate]	924 nM		3750 nM		7.7 nM	180 nM
CC(=O)N[C@@H]1C[C@H](Nc2nc(Nc3cc(OC(F)(F)F)ccn3)ccc2C)CC(F)(F)C1 [Compound 60, N-((1R,5S)-3,3-difluoro-5-((3-methyl-6-((4-(trifluoromethoxy)pyridin-2-yl)amino)pyridin-2-yl)amino)cyclohexyl)acetamide]	797 nM			894 nM	70.5 nM	
CC(=O)NC[C@H]1CCC(F)(F)CN1C(=O)c1nc(Nc2cc(OC(F)(F)F)ccn2)ccc1F [Compound 64, (R)—N-((5,5-difluoro-1-(3-fluoro-6-((4-(trifluoromethoxy)pyridin-2-yl)amino)pyridine-2-carbonyl)piperidin-2-yl)methyl)acetamide]	120 nM			120 nM	6.3 nM	
NC[C@H]1CCC(F)(F)CN1C(=O)c1nc(Nc2cc(OC(F)(F)F)ccn2)ccc1F [Compound 67, (R)-(2-(aminomethyl)-5,5-difluoropiperidin-1-yl)(3-fluoro-6-((4-(trifluoromethoxy)pyridin-2-yl)amino)pyridin-2-yl)methanone]	61.2 nM	656 nM	140 nM	66.8 nM	6.8 nM	
CC(=O)NC[C@H]1CCC(F)(F)CN1C(=O)c1cccc(Nc2cc(OC(F)(F)F)ccn2)n1 [Compound 80, (R)—N-((5,5-difluoro-1-(6-((4-(trifluoromethoxy)pyridin-2-yl)amino)pyridine-2-carbonyl)piperidin-2-yl)methyl)acetamide]	258 nM			198 nM	7.2 nM	
CC(=O)NC[C@H]1CCC(F)(F)CN1C(=O)c1nc(Nc2cc(OC(F)(F)F)ccn2)ccc1Cl [Compound 84, (R)—N-((1-(3-chloro-6-((4-(trifluoromethoxy)pyridin-2-yl)amino)pyridine-2-carbonyl)-5,5-difluoropiperidin-2-yl)methyl)acetamide]	577 nM				6.2 nM	58.6 nM
